# Patent publication US9724300B2, “Long-lasting, controlled-release local anesthetic liposome preparation” (Terumo Kabushiki Kaisha, priority 2012, dated 2017)
# Counter-ions that a name gives are not always drawn.
# Test system: postoperative pain model of rats
# Assay: Postoperative pain model of rats (foot sole pain model), von Frey filament test
# Format: in vivo, male Wistar rats
# Method: A pentobarbital sodium injection (Nembutal injection, made by Sumitomo Dainippon Pharma Co., Ltd.) (0.3 mL) was intraperitoneally administered to male Wistar rats for anesthesia. Thereafter, a skin incision was made with a No. 11 scalpel blade (made by FEATHER Safety Razor Co., Ltd.) longitudinally at a position of 5 mm from the heel of the left foot bottom. The plantaris muscle was taken out from the incision site, followed by longitudinal incision. Subsequently, the skin was subjected to a knotted suture with a 5-0 nylon thread by double stitches. Moreover, a […] was applied in a single layer thereonto so as not to permit the administered controlled-release preparation to leak. […] More particularly, using the von Frey hair set (commercial name: Touch-Test, made by North Coast Medical Inc.) requiring a given stress before bending, this was pressed against the operated site of rats vertically from beneath the mesh of a gauge wherein rats were accommodated, whereupon a stress (a withdrawal threshold against mechanical stimuli) was determined at the time when the rat raised paws in surprise. […] Using the postoperative pain model of rat set out above, the analgesic effect of the bupivacaine hydrochloride-containing, controlled-release preparation of Example 1 was evaluated according to the von Frey filament test. […]
Compound,"analgesic effect (increase of threshold value) (bupivacaine hydrochloride itself (stock solution), similar postoperative pain model of rats)","analgesic effect (increase of threshold value) (ropivacaine hydrochloride itself (stock solution), similar postoperative pain model of rat)"
"CCCCN1CCCCC1C(=O)Nc1c(C)cccc1C (centres unmarked) [bupivacaine hydrochloride, Bupivacaine hydrochloride]",no analgesic effect was obtained even at the postoperative first day,–
"CCCN1CCCC[C@H]1C(=O)Nc1c(C)cccc1C [ropivacaine hydrochloride, Ropivacaine hydrochloride]",–,no analgesic effect was obtained even at the postoperative first day
